Data as given in patent US20090226901A1, “Method of evaluating or selecting agents for preventing or improving pigmented spots” (Kao Corporation, priority 2008, published 2009).

Columns and labels:
SCF (KITLG) gene [1] = assay: SCF (KITLG) gene expression in cultured human epidermal keratinocytes, quantitative PCR; format: cell-based; details: cultured epidermal cells
Protocol: (§1) Human epidermal cells derived from neonatal foreskin were purchased from Kurabo Industries Ltd., and were precultured in a serum-free basal growth medium (EpiLife, product of Kurabo Industries Ltd.) in an atmosphere of 5% (v/v) CO2 at 37° C. The thus-precultured epidermal cells were inoculated into a 6-well culture plate (product of Falcon) (1.0×10^5 cells/well). Twenty-four hours thereafter, the cells were cultured in a growth medium without including BPE (bovine pituitary gland extract) and hEGF (human epidermal growth factor), and 24 hours thereafter, 5-fluorouracil (5-FU, product of Calbiochem), which is a conventionally known p53 activator, was added at a concentration of 1 or 10 μg/mL. After 48-hour treatment, total RNA was extracted by use of TRIzol® Reagent (product of Invitrogen Corporation). Specifically, each well of the culture plate was washed with PBS, and TRIzol® Reagent (1 mL) was added to the well. […]
(§2) The thus-extracted total RNA was subjected to reverse transcription to synthesize cDNA, and the thus-synthesized cDNA was employed for gene expression analysis through quantitative PCR using TaqMan® probe. In the present Example, specifically, expression levels of SCF (KITLG) gene (Assay ID: Hs00241497_m1) and endothelin-1 gene (Assay ID: Hs00174961_m1) were measured. […]

endothelin-1 gene [2] = assay: endothelin-1 gene expression in organ-cultured skin tissue of pigmentatio petaloides actinica, RT-PCR; format: cell-based, human; details: 10 μM PFT, 72 hours organ culture, epidermis, relative to control spot sample, FIG. 6
Excerpt: (§3) Through a contract laboratory of Stephens & Associates (Carrollton, Tex.), subjects having spots were recruited. A dermatologist, contractor of the laboratory, collected samples of skin tissue with pigmentatio petaloides actinica from the shoulder (at two sites for each subject) in two subjects at with a biopsy trepan (diameter: 4 mm). Thereafter, the thus-collected skin biopsy samples were immersed in Dulbecco's modified Eagle's medium (DMEM), and transported to the Cincinnati branch of Biological Science Americas Laboratories while being maintained at about 4 to 10° C. […]
(§4) Thereafter, total RNA was extracted by use of RNeasy micro kit (Qiagen), and cDNA was synthesized through a customary method by means of ThermoScript RT-PCR Systems (Invitrogen, Carlsbad, Calif.). Probes specific to tyrosinase mRNA, SCF (KITLG) mRNA, and endothelin-1 mRNA were obtained from TaqMan® Gene Expression Assays (Applied Biosystems) (Assay IDs: Hs00165976_m1, Hs00241497_m1, and Hs00174961_ml), and real-time quantitative RT-PCR was carried out by means of ABI PRISM 7300 sequence detection system (Applied Biosystems). […] The expression level of each gene in the PFT-treated spot sample was calculated relative to that of the gene in a control spot sample (taken as 1).

[3] = tested on: three-dimensional cultured skin model (MEL-300A); assay: melanin content of three-dimensional cultured skin model (MEL-300A); format: cell-based, human; details: culturing for 14 days, absorbance at 405 nm, relative to control (100%), FIG. 5
Protocol: A three-dimensional cultured skin model (MEL-300A) was purchased from Kurabo Industries Ltd. Immediately after the product had been obtained, a tissue cup was transferred into a 6-well culture plate (product of Falcon), and cultured overnight in a long-term maintenance medium (EPI-100-NMM-113, product of Kurabo Industries Ltd.) (1 mL), in an atmosphere of […] at 37° C. Subsequently, pifithrin-α (PFT), which is a conventionally known p53 inhibitor, was added, followed by culturing for 14 days. Culturing was carried out by allowing the tissue cup to stand still on a sterilized stainless steel washer (product of Kurabo Industries Ltd.) and by use of a long-term maintenance medium (5 mL). Medium was exchanged every three days. After culturing, skin tissue was removed from the tissue cup with tweezers, and then washed thrice with PBS, once with 5% (v/v) trichloroacetic acid, and once with a mixture of diethyl ether and ethanol (1:3 by volume). Thereafter, the thus-washed skin tissue was incubated at 50° C. for two hours, to thereby dry the tissue. Subsequently, the tissue was dissolved in 2N aqueous sodium hydroxide solution (2N) (200 μL), followed by centrifugation at 15,000 rpm for 15 minutes. Thereafter, the culture supernatant was recovered, and absorbance was measured at 405 nm, to thereby calculate the melanin content in the tissue.

endothelin-1 gene [4] = assay: endothelin-1 gene expression in cultured human epidermal keratinocytes, quantitative PCR; format: cell-based; details: cultured epidermal cells
Protocol: as §1, §2

SCF (KITLG) gene [5] = assay: SCF (KITLG) gene expression in organ-cultured skin tissue of pigmentatio petaloides actinica, RT-PCR; format: cell-based, human; details: 10 μM PFT, 72 hours organ culture, epidermis, relative to control spot sample, FIG. 6
Excerpt: as §3, §4

tyrosinase gene = tyrosinase gene expression in organ-cultured skin tissue of pigmentatio petaloides actinica, RT-PCR; format: cell-based, human; details: 10 μM PFT, 72 hours organ culture, epidermis, relative to control spot sample, FIG. 6
Excerpt: as §3, §4

HCT116 cells = details: HCT116 human colon cancer cell line; Cell, 124, 207-219, 2006; cited from earlier work
[6] = PFT 1 or 10 μM, 24-hours culturing, FIG. 4
[7] = 5-FU 1 or 10 μg/mL, 48-hour treatment, FIG. 3

SMILES | expression of SCF (KITLG) gene (SCF (KITLG) gene [1]; [6]) | expression of endothelin-1 gene (endothelin-1 gene [2]) | melanin contents [3] | expression of endothelin-1 gene (endothelin-1 gene [4]; [6]) | expression level of SCF (KITLG) gene (SCF (KITLG) gene [5]) | expression level of tyrosinase gene (tyrosinase gene) | expression level of SCF (KITLG) gene (HCT116 cells) | expression of SCF (KITLG) gene (SCF (KITLG) gene [1]; [7]) | expression of endothelin-1 gene (endothelin-1 gene [4]; [7])
Cc1ccc(C(=O)Cn2c3c(sc2=N)CCCC3)cc1 [pifithrin-α] | significantly decreased | tended to be significantly decreased | decreased the melanin contents of the three-dimensional cultured skin model in a dose-dependent manner | significantly decreased | significantly decreased | significantly decreased | – | – | –
O=c1[nH]cc(F)c(=O)[nH]1 [5-fluorouracil] | – | – | – | – | – | – | induced | significantly induced | significantly induced
